# Experimental data published in patent US20100179089A1, “Compositions and Methods to Manage the Inflammatory Basis of Chronic Disease Conditions and Maintain an Optimal Immune Response in Elderly” (priority 2009, published 2010).
# Read-outs that look alike come from different tables or passages of the source.
# What was measured:
# muscle protein synthesis [1] = details: pigs with a sepsis-like syndrome, arginine supplementation; cited from earlier work
# muscle protein synthesis [2] = details: cited from earlier work
# protein synthesis = assay: Amino acid supplementation and protein synthesis in normal, inflamed and inflamed with DHA conditions (FIG. 4); details: conditions of inflammation (FIG. 4)
# Source text: Given the observed changes in protein intake and observed changes in protein synthesis in aging, it is believed that a hyperinflammed state compromises protein synthesis and further accentuates chronic disease related to arginine deficiency and malnutrition.
# Omega-3 fatty acids, including but not limited to alpha-linolenic acid (ALA), eicosapentaenoic (EPA) and docosahexaenoic acids (DHA); omega-6 linoleic acid; and borage oil (also an omega-6 fatty acid) are currently used in different diets with the intention to improve immune dysfunction. […] Used with omega-3 fatty acids, arginine is believed to be more available to provide a normal response under conditions of inflammation. Dietary intake of omega-3 fatty acids by the elderly may favorably shift the balance in the production of PGE2, via […] and downregulation of arginase (as shown in FIG. 6) and, consequently, help avoid arginine deficiency and thereby improve or maintain optimal immune system function. […] The products of omega-6 fatty acid metabolism are believed to contribute to arginine deficiency and inflammation in this way. There have been numerous studies showing the benefits of dietary omega-3 fatty acids over omega-6 fatty acids in various physiologic conditions including coronary artery disease, chronic inflammatory conditions such as cancer, and other inflammatory mediated states.
SMILES,Muscle protein synthesis (muscle protein synthesis [1]),"Muscle protein synthesis (muscle protein synthesis [2]; anesthetized rabbits, infusion)","Muscle protein breakdown (muscle protein synthesis [2]; post-absorptive rabbits, arginine added to the amino acid solution)",Protein synthesis (protein synthesis)
N=C(N)NCCC[C@H](N)C(=O)O [arginine],improved,stimulated,unchanged,
"CC/C=C\C/C=C\C/C=C\C/C=C\C/C=C\C/C=C\CCC(=O)O [DHA, docosahexaenoic acids]",,,,improves the efficacy of arginine delivery in promoting protein synthesis
